# Source: ChEMBL document CHEMBL1121869, “Potential inhibitors of L-asparagine biosynthesis. 5. Electrophilic amide analogues of (S)-2,3-diaminopropionic acid” (J Med Chem, 1981)
# Tests used:
# [1] = target: T1, Asparagine synthetase [glutamine-hydrolyzing] (Rattus norvegicus) (UniProt P49088); assay: Inhibition of asparagine synthetase from partially purified rat Novikoff hepatoma at a final concentration of 1 mM with
# T1 sequence (whole entry): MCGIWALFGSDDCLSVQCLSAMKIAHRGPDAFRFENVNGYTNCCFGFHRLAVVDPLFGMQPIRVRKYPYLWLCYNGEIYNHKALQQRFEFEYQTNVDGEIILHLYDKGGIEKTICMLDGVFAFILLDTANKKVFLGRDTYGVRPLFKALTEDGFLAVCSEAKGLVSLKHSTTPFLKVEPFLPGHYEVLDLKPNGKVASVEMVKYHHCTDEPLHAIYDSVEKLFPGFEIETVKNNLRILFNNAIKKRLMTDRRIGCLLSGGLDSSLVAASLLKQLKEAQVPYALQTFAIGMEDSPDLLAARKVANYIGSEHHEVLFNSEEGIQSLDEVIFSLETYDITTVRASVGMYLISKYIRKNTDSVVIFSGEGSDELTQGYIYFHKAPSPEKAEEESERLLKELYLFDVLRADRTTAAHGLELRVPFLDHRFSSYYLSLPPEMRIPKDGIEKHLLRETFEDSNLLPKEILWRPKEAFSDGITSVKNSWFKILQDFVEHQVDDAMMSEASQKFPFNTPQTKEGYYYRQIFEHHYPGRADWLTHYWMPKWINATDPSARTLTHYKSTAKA
# [2] = system: TsH1; assay: Compound was evaluated for the growth inhibition of TsH1 cells in an enriched eagles minimal essential medium, medium lacking aspartic acid and asparagine at a concentration of 0.01 mg/mL (0.04 mM); Heavy growth; type: functional, cell-based; conditions: Cricetulus griseus
# [3] = system: TsH1; assay: Compound was evaluated for the growth inhibition of TsH1 cells in an enriched eagles minimal essential medium, medium lacking aspartic acid and asparagine at a concentration of 0.04 mg/mL (0.19 mM); Heavy growth; type: functional, cell-based; conditions: Cricetulus griseus
# [4] = system: TsH1; assay: Compound was evaluated for the growth inhibition of TsH1 cells in an enriched eagles minimal essential medium, complete medium at a concentration of 0.01 mg/mL (0.04 mM); Heavy growth; type: functional, cell-based; conditions: Cricetulus griseus
# [5] = system: TsH1; assay: Compound was evaluated for the growth inhibition of TsH1 cells in an enriched eagles minimal essential medium, complete medium at a concentration of 0.2 mg/mL (0.93 mM); Heavy growth; type: functional, cell-based; conditions: Cricetulus griseus
# [6] = system: TsH1; assay: Compound was evaluated for the growth inhibition of TsH1 cells in an enriched eagles minimal essential medium, medium lacking asparagine at a concentration of 0.2 mg/mL (0.93 mM); Cells dead; type: functional, cell-based; conditions: Cricetulus griseus
# [7] = system: TsH1; assay: Compound was evaluated for the growth inhibition of TsH1 cells in an enriched eagles minimal essential medium, medium lacking asparagine at a concentration of 1.0 mg/mL (4.65 mM); Cells dead; type: functional, cell-based; conditions: Cricetulus griseus
# [8] = system: TsH1; assay: Compound was evaluated for the growth inhibition of TsH1 cells in an enriched eagles minimal essential medium, medium lacking aspartic acid at a concentration of 0.01 mg/mL (0.04 mM); Heavy growth; type: functional, cell-based; conditions: Cricetulus griseus
# [9] = system: TsH1; assay: Compound was evaluated for the growth inhibition of TsH1 cells in an enriched eagles minimal essential medium, medium lacking asparagine at a concentration of 0.01 mg/mL (0.04 mM); Heavy growth; type: functional, cell-based; conditions: Cricetulus griseus
# [10] = system: TsH1; assay: Compound was evaluated for the growth inhibition of TsH1 cells in an enriched eagles minimal essential medium, complete medium at a concentration of 0.04 mg/mL (0.19 mM); Heavy growth; type: functional, cell-based; conditions: Cricetulus griseus
# [11] = system: TsH1; assay: Compound was evaluated for the growth inhibition of TsH1 cells in an enriched eagles minimal essential medium, complete medium at a concentration of 1.0 mg/mL (4.65 mM); Medium growth; type: functional, cell-based; conditions: Cricetulus griseus
# [12] = system: TsH1; assay: Compound was evaluated for the growth inhibition of TsH1 cells in an enriched eagles minimal essential medium, medium lacking aspartic acid and asparagine at a concentration of 0.2 mg/mL (0.93 mM); Cells dead; type: functional, cell-based; conditions: Cricetulus griseus
# [13] = system: TsH1; assay: (§1) Compound was evaluated for the growth inhibition of TsH1 cells in an enriched eagles minimal essential medium, medium lacking asparagine at a concentration of 0.04 mg/mL (0.19 mM); Heavy growth; type: functional, cell-based; conditions: Cricetulus griseus
# [14] = system: TsH1; assay: Compound was evaluated for the growth inhibition of TsH1 cells in an enriched eagles minimal essential medium, medium lacking aspartic acid and asparagine at a concentration of 1.0 mg/mL (4.65 mM); Cells dead; type: functional, cell-based; conditions: Cricetulus griseus
# [15] = system: TsH1; assay: Compound was evaluated for the growth inhibition of TsH1 cells in an enriched eagles minimal essential medium, medium lacking aspartic acid at a concentration of 0.2 mg/mL (0.93 mM); Heavy growth; type: functional, cell-based; conditions: Cricetulus griseus
# [16] = system: TsH1; assay: Compound was evaluated for the growth inhibition of TsH1 cells in an enriched eagles minimal essential medium, medium lacking aspartic acid at a concentration of 1.0 mg/mL (4.65 mM); Medium growth; type: functional, cell-based; conditions: Cricetulus griseus
# [17] = system: TsH1; assay: as §1; type: functional, cell-based; conditions: Cricetulus griseus; remark: listed apart in the source
# [18] = target: T1, Asparagine synthetase [glutamine-hydrolyzing] (Rattus norvegicus); assay: Inhibition of asparagine synthetase from partially purified rat Novikoff hepatoma at a final concentration of 2 mM
# [19] = target: T1, Asparagine synthetase [glutamine-hydrolyzing] (Rattus norvegicus); assay: Inhibition of asparagine synthetase from partially purified rat Novikoff hepatoma at a final concentration of 1 mM
# [20] = system: TsH1; assay: Compound was evaluated for the growth inhibition of TsH1 cells in an enriched eagles minimal essential medium, medium lacking aspartic acid and asparagine at a concentration of 0.04 mg/mL (0.17 mM); Heavy growth; type: functional, cell-based; conditions: Cricetulus griseus
# [21] = system: TsH1; assay: Compound was evaluated for the growth inhibition of TsH1 cells in an enriched eagles minimal essential medium, medium lacking aspartic acid and asparagine at a concentration of 0.2 mg/mL (0.87 mM); Heavy growth; type: functional, cell-based; conditions: Cricetulus griseus
# [22] = system: TsH1; assay: Compound was evaluated for the growth inhibition of TsH1 cells in an enriched […] at a concentration of 0.2 mg/mL (0.87 mM); Heavy growth; type: functional, cell-based; conditions: Cricetulus griseus
# [23] = system: TsH1; assay: Compound was evaluated for the growth inhibition of TsH1 cells in an enriched eagles minimal essential medium, complete medium at a concentration of 0.01 mg/mL (0.01 mM); Heavy growth; type: functional, cell-based; conditions: Cricetulus griseus
# [24] = system: TsH1; assay: Compound was evaluated for the growth inhibition of TsH1 cells in an enriched eagles minimal essential medium, complete medium at a concentration of 0.2 mg/mL (0.87 mM); Heavy growth; type: functional, cell-based; conditions: Cricetulus griseus
# [25] = system: TsH1; assay: Compound was evaluated for the growth inhibition of TsH1 cells in an enriched eagles minimal essential medium, medium lacking asparagine at a concentration of 0.2 mg/mL (0.87 mM); Heavy growth; type: functional, cell-based; conditions: Cricetulus griseus
# [26] = system: TsH1; assay: Compound was evaluated for the growth inhibition of TsH1 cells in an enriched eagles minimal essential medium, medium lacking asparagine at a concentration of 1.0 mg/mL (4.34 mM); Heavy growth; type: functional, cell-based; conditions: Cricetulus griseus
# [27] = system: TsH1; assay: Compound was evaluated for the growth inhibition of TsH1 cells in an enriched eagles minimal essential medium, medium lacking aspartic acid and asparagine at a concentration of 0.01 mg/mL (0.01 mM); Heavy growth; type: functional, cell-based; conditions: Cricetulus griseus
# [28] = system: TsH1; assay: Compound was evaluated for the growth inhibition of TsH1 cells in an enriched eagles minimal essential medium, medium lacking aspartic acid at a concentration of 0.01 mg/mL (0.01 mM); Heavy growth; type: functional, cell-based; conditions: Cricetulus griseus
# [29] = system: TsH1; assay: Compound was evaluated for the growth inhibition of TsH1 cells in an enriched eagles minimal essential medium, medium lacking asparagine at a concentration of 0.01 mg/mL (0.01 mM); Heavy growth; type: functional, cell-based; conditions: Cricetulus griseus
# [30] = system: TsH1; assay: Compound was evaluated for the growth inhibition of TsH1 cells in an enriched eagles minimal essential medium, complete medium at a concentration of 0.04 mg/mL (0.17 mM); Heavy growth; type: functional, cell-based; conditions: Cricetulus griseus
# [31] = system: TsH1; assay: Compound was evaluated for the growth inhibition of TsH1 cells in an enriched eagles minimal essential medium, complete medium at a concentration of 1.0 mg/mL (4.34 mM); Heavy growth; type: functional, cell-based; conditions: Cricetulus griseus
# [32] = system: TsH1; assay: Compound was evaluated for the growth inhibition of TsH1 cells in an enriched eagles minimal essential medium, medium lacking asparagine at a concentration of 0.04 mg/mL (0.17 mM); Heavy growth; type: functional, cell-based; conditions: Cricetulus griseus
# [33] = system: TsH1; assay: Compound was evaluated for the growth inhibition of TsH1 cells in an enriched eagles minimal essential medium, medium lacking aspartic acid and asparagine at a concentration of 1.0 mg/mL (4.34 mM); Heavy growth; type: functional, cell-based; conditions: Cricetulus griseus
# [34] = system: TsH1; assay: Compound was evaluated for the growth inhibition of TsH1 cells in an enriched eagles minimal essential medium, medium lacking aspartic acid at a concentration of 1.0 mg/mL (4.34 mM); Heavy growth; type: functional, cell-based; conditions: Cricetulus griseus
# [35] = system: TsH1; assay: Compound was evaluated for the growth inhibition of TsH1 cells in an enriched eagles minimal essential medium, cmedium lacking aspartic acid at a concentration of 0.04 mg/mL (0.17 mM); Heavy growth; type: functional, cell-based; conditions: Cricetulus griseus
structure (smiles),measurement,setting,value
NC(CNC(=O)C(Cl)Cl)C(=O)O (stereo not given),inhibition,[1],18.7%
same,Growth inhibition,[2],Heavy Growth
same,Growth inhibition,[3],Heavy Growth
same,Growth inhibition,[4],Heavy Growth
same,Growth inhibition,[5],Heavy Growth
same,Growth inhibition,[6],Not toxic
same,Growth inhibition,[7],Not toxic
same,Growth inhibition,[8],Heavy Growth
same,Growth inhibition,[9],Heavy Growth
same,Growth inhibition,[10],Heavy Growth
same,Growth inhibition,[11],Medium Growth
same,Growth inhibition,[12],Not toxic
same,Growth inhibition,[13],Heavy Growth
same,Growth inhibition,[14],Not toxic
same,Growth inhibition,[15],Heavy Growth
same,Growth inhibition,[16],Medium Growth
same,Growth inhibition,[17],Heavy Growth
NCC(N)C(=O)O (stereo not given),inhibition,[18],0%
CCOC(=O)/C=C/C(=O)NCC(N)C(=O)O (stereo not given),inhibition,[19],37.4%
same,Growth inhibition,[20],Heavy Growth
same,Growth inhibition,[21],Heavy Growth
same,Growth inhibition,[22],Heavy Growth
same,Growth inhibition,[23],Heavy Growth
same,Growth inhibition,[24],Heavy Growth
same,Growth inhibition,[25],Heavy Growth
same,Growth inhibition,[26],Heavy Growth
same,Growth inhibition,[27],Heavy Growth
same,Growth inhibition,[28],Heavy Growth
same,Growth inhibition,[29],Heavy Growth
same,Growth inhibition,[30],Heavy Growth
same,Growth inhibition,[31],Heavy Growth
same,Growth inhibition,[32],Heavy Growth
same,Growth inhibition,[33],Heavy Growth
same,Growth inhibition,[34],Heavy Growth
same,Growth inhibition,[35],Heavy Growth
